These results are taken from US11274101B2, “Heterocyclic compound” (Takeda Pharmaceutical Company Limited, priority 2017, dated 2022).

In data set [1] the target is T1, His-hMAGL (recombinant polyhistidine tagged human MAGL protein) (Homo sapiens, UniProt Q99685).
T1 construct: made in house; host or cells: E. coli BL21(DE3)
T1 sequence (Q99685 1-303): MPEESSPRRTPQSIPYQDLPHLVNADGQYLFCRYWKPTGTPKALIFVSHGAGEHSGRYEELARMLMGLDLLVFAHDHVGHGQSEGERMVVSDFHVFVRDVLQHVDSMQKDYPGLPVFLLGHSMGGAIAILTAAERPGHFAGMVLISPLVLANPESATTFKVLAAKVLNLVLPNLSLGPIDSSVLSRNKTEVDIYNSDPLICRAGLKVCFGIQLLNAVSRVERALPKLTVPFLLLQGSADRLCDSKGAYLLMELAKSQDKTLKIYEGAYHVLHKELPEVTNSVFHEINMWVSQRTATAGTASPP
The data set can be described thus: Measurement of MAGL inhibitory activity (arachidonic acid production from 2-arachidonylglycerol, RapidFire-mass spectrometry). In kind it is biochemical. The conditions noted are these: test compound 10 μM; MAGL inhibitory rate. The protocol: The His-hMAGL obtained above was diluted with enzyme reaction buffer (10 mM Tris-HCl, pH 7.5, 1 mM EDTA, 0.025 (w/v) % Triton X-100, 0.01% Bovine serum albumin) to a concentration of 7.5 ng/mL. To each well of a 384 well assay plate (Greiner 781280) was added a solution (5 μL) of a test compound dissolved in dimethyl sulfoxide (DMSO), which was diluted with the above-mentioned enzyme reaction buffer, then His-hMAGL solution (5 μL) diluted to a concentration of 7.5 ng/mL was added, and the mixture was incubated at room temperature for 60 min. Thereafter, to each well was added 5 μL of 150 μM 2-arachidonylglycerol (Tocris Bioscience), and the mixture was incubated at room temperature for 10 min. Then, 10 μL of 2% formic acid (Wako Pure Chemical Industries, Ltd.) was added to stop the reaction. Furthermore, acetonitrile (50 μL) containing 3 μM arachidonic acid-d8 (Cayman Chemical Company) was added and the mixture was stirred.
The amount of arachidonic acid in the obtained enzyme reaction mixture was calculated by measuring by RapidFire-mass spectrometry and correcting by the amount of arachidonic acid-d8. High Throughput online solid phase extraction was performed using RapidFire 300™ system (Agilent Technologies, Inc.). Samples were loaded on SPE C4 cartridge (Agilent Technologies, Inc.) and desalted with 0.2 (v/v) % acetic acid (Wako Pure Chemical Industries, Ltd.) in ultrapure water/acetonitrile (70/30, v/v) at a flow rate of 1.5 mL/min, eluted at a flow rate of 0.5 mL/min with 0.2 (v/v) % acetic acid dissolved in acetonitrile/ultrapure water (90/10, v/v), and injected into the mass spectrometry part. The injection needle was washed with ultrapure water (500 millisecond) and acetonitrile (500 millisecond) to minimize carry-over. The suction time (injection loop 5 μL), load/cleansing time, elution time and re-equilibration time were adjusted to 300, 3000, 4250 and 1000 milliseconds, respectively, and the total cycle time was adjusted to about 10.0 seconds. The RapidFire300 system was controlled by RapidFire UI software version 3.6 (Agilent Technologies, Inc.).
The mass spectrometry of the resultant product was performed using API4000™ triple quadrupole mass spectrometer (AB SCIEX) equipped with an electrospray ion sauce (TurboIon Spray™) in a negative selected reaction monitoring (SRM) mode. The conditions of SRM are shown below. The parameters of the instrument were optimized as follows: capillary temperature 600° C., ion spray voltage −4.5 kV, collision gas 8, curtain gas 15 psi, ion source gas 1 60 psi, ion source gas 2 60 psi. The mass spectrometer was controlled by Analyst™ software version 1.5.1 (AB SCIEX). The peak area integration was analyzed using RapidFire integrator software version 3.6 (Agilent Technologies, Inc.).
MAGL inhibitory rate (%) was calculated according to the following calculation formula. (1-(arachidonic acid production amount of test compound addition group−arachidonic acid production amount of enzyme-free group)+(arachidonic acid production amount of test compound-free group−arachidonic acid production amount of enzyme-free group))×100

The test system of data set [2] is intracerebral 2-AG and arachidonic acid. Kind of data set: Measurement of intracerebral 2-AG and arachidonic acid concentrations after oral administration. The format is in vivo, mouse (C57BL/6J). The conditions noted are these: for 2-AG concentration / arachidonic acid concentration: male C57BL/6J mice, 1 mg/kg by gavage, cerebrum isolated 1 hour after administration; for 2-AG concentration: control 13.5; for arachidonic acid concentration: control 203.1; for intracerebral 2-AG concentration compared to control / intracerebral arachidonic acid concentration compared to control / migration into brain: oral administration to C57BL/6J mice. The protocol: As the mouse, 8-week-old male C57BL/6J mice (CLEA Japan, Inc.) were used (6 mice/group). Administration solutions were prepared by suspending the test compounds (compound 1 (compound of Example 16), compound 2 (compound of Example 18) and compound 3 (compound of Example 46)) in 0.5% methylcellulose solution (Wako Pure Chemical Industries, Ltd.). The dose of the test compound was prepared to be 1 mg/kg body weight/10 mL. The test compounds were administered by gavage at 1 mg/kg body weight. The cerebrum was isolated after the administration of the test compound (isolation time after the administration of the test compound is shown in Table 3), and the cerebrum hemisphere was extracted. The obtained cerebrum hemisphere was frozen on dry ice, and the frozen tissue weight was measured.
The cerebral tissue was homogenized with 4-fold (v/w) of isopropanol (IPA), and double diluted with IPA. To the diluted sample (200 μL) was added internal standard solution (5 μL) ([5,6,8,9,11,12,14,15-D8]-(5Z,8Z,11Z,14Z)-5,8,11,14-eicosatetraenoic acid (AA-d8, 0.5 nmol/mL IPA) and [5,6,8,9,11,12,14,15-D8]-(5Z,8Z,11Z,14Z)-5,8,11,14-eicosatetraenoyl-2-glycerol ester (2-AG-d8, 0.5 nmol/mL IPA)), and the mixture was centrifuged at 15000 rpm for 5 min. The supernatant was injected to liquid chromatography mass spectrometer for quantitative analysis.
For liquid chromatography, Shimadzu LC20A system (Shimadzu Corporation) was used. The separation was performed by gradient elution method with mobile phase A (10 mmol/L HCOONH4/HCOOH (100:0.2, v/v)) and mobile phase B (ethanol/IPA (3:2, v/v)) using Shim-pack XR-ODS (2.2 μm, 2.0×30 mm, Shimadzu Corporation) at column temperature of 50° C., at flow rate of 0.5 mL/min. The gradient conditions are as follows: 0-1 min, 1% B; 1-1.2 min, 1-55% B; 1.2-2.7 min, 55-75% B; 2.7-3.5 min, 75-99% B; 3.5-6 min, 99% B; 6-8 min, 1% B.
For mass spectrometer, API5000 (AB SCIEX) was used. The eluate from the liquid chromatography was directly ionized by turbospray ionization method, where (5Z,8Z,11Z,14Z)5,8,11,14-eicosatetraenoic acid (AA) and AA-ds were measured by negative ionization mode, and (5Z,8Z,11Z,14Z)5,8,11,14-eicosatetraenoyl-2-glycerol ester (2-AG) and 2-AG-d8 were measured by positive ionization mode.
A solution for calibration curve was prepared to the concentration of 2, 5, 10, 20, 50, 100, 200, 500, 1000 nmol/mL of acetonitrile. These solutions (10 μL) was mixed with 200 μL of IPA and 5 μL of internal standard solution, and the mixture was centrifuged at 15000 rpm for 5 min, and the supernatant was injected to liquid chromatography mass spectrometer. Liner regression with 1/x^2 weighting was used for the calibration curve fitting, and the quantitativity was confirmed by accuracy of 100±20% and R^2>0.99.

By inhibition is commonly meant the change of the read-out against control, counted positive when it falls. In the case of `O=C1NC2(CO1)CN(C(=O)O[C@H]1C[C@@H](Oc3c(F)cc(F)cc3F)C1)C2` [Example 46, cis-3-(2,4,6-trifluorophenoxy)cyclobutyl 6-oxo-7-oxa-2,5-diazaspiro[3.4]octane-2-carboxylate], the inhibition at 10 µM in data set [1] turned out to be 102%. Besides, in data set [2], the 2-AG concentration turned out to be 79.0 nmol/g, the arachidonic acid concentration is recorded as 138.0 nmol/g, the “intracerebral 2-AG concentration compared to control” value is given as “increased” and the “intracerebral arachidonic acid concentration compared to control” value was “decreased”. Besides, the migration into brain result in data set [2] was “migrated into brain”.

As for `O=C1NC2(CO1)CN(C(=O)O[C@H]1C[C@@H](COc3ccc(F)c(F)c3F)C1)C2` [Example 16, cis-3-((2,3,4-trifluorophenoxy)methyl)cyclobutyl 6-oxo-7-oxa-2,5-diazaspiro[3.4]octane-2-carboxylate], the inhibition at 10 µM in data set [1] was found to be 100%. Further, in data set [2], the 2-AG concentration was found to be 82.3 nmol/g, the arachidonic acid concentration came to 119.8 nmol/g, the “intracerebral 2-AG concentration compared to control” value is listed as “increased” and the “intracerebral arachidonic acid concentration compared to control” value is “decreased”. In addition, the migration into brain entry in data set [2] is reported as “migrated into brain”.

Turning to `O=C1NC2(CO1)CN(C(=O)O[C@H]1C[C@@H](COc3c(F)cc(F)cc3F)C1)C2` [Example 18, cis-3-((2,4,6-trifluorophenoxy)methyl)cyclobutyl 6-oxo-7-oxa-2,5-diazaspiro[3.4]octane-2-carboxylate], in data set [1], the inhibition at 10 µM came to 102%. Further, in data set [2], the 2-AG concentration is given as 128.7 nmol/g, the arachidonic acid concentration stood at 84.3 nmol/g, the “intracerebral 2-AG concentration compared to control” value is “increased” and the “intracerebral arachidonic acid concentration compared to control” value is “decreased”. In addition, the migration into brain result in data set [2] is on record as “migrated into brain”.

With `O=C1NC2(CO1)CN(C(=O)O[C@H]1C[C@H](Oc3ccc(F)c(F)c3F)C1)C2` [Example 39, trans-3-(2,3,4-trifluorophenoxy)cyclobutyl 6-oxo-7-oxa-2,5-diazaspiro[3.4]octane-2-carboxylate], the inhibition at 10 µM in data set [1] came out at 100%.

Turning to `O=C1NC2(CO1)CN(C(=O)O[C@H]1C[C@@H](COCc3c(F)cc(F)cc3F)C1)C2` [Example 33, cis-3-(((2,4,6-trifluorobenzyl)oxy)methyl)cyclobutyl 6-oxo-7-oxa-2,5-diazaspiro[3.4]octane-2-carboxylate], the inhibition at 10 µM in data set [1] came out at 101%.

For `O=C1NC2(CO1)CN(C(=O)O[C@H]1CC[C@@H](Oc3ccc(C(F)(F)F)cc3F)CC1)C2` [Example 38, cis-4-(2-fluoro-4-(trifluoromethyl)phenoxy)cyclohexyl 6-oxo-7-oxa-2,5-diazaspiro[3.4]octane-2-carboxylate], the inhibition at 10 µM in data set [1] was found to be 102%.

For `O=C1NC2(CO1)CN(C(=O)O[C@H]1C[C@@H](Oc3ccc(Cl)cc3F)C1)C2` [Example 54, cis-3-(4-chloro-2-fluorophenoxy)cyclobutyl 6-oxo-7-oxa-2,5-diazaspiro[3.4]octane-2-carboxylate], the inhibition at 10 µM in data set [1] was 100%.

With `O=C1NC2(CO1)CN(C(=O)O[C@H]1C[C@H](Oc3ccc(C(F)(F)F)cc3F)C1)C2` [Example 34, trans-3-(2-fluoro-4-(trifluoromethyl)phenoxy)cyclobutyl 6-oxo-7-oxa-2,5-diazaspiro[3.4]octane-2-carboxylate], the inhibition at 10 µM in data set [1] is 99%.

With `O=C1NC2(CO1)CN(C(=O)O[C@H]1C[C@@H](COc3ccc(C(F)(F)F)cc3F)C1)C2` [Example 19, cis-3-((2-fluoro-4-(trifluoromethyl)phenoxy)methyl)cyclobutyl 6-oxo-7-oxa-2,5-diazaspiro[3.4]octane-2-carboxylate], the inhibition at 10 µM in data set [1] was 98%.

Consider `O=C1NC2(CO1)CN(C(=O)O[C@H]1C[C@@H](OCc3ccc(C(F)(F)F)cc3F)C1)C2` [Example 10, cis-3-((2-fluoro-4-(trifluoromethyl)benzyl)oxy)cyclobutyl 6-oxo-7-oxa-2,5-diazaspiro[3.4]octane-2-carboxylate], for which the inhibition at 10 µM in data set [1] was 99%.

Regarding `Cc1ccc(COC[C@H]2C[C@@H](OC(=O)N3CC4(COC(=O)N4)C3)C2)cc1Cl` [Example 28, cis-3-(((3-chloro-4-methylbenzyl)oxy)methyl)cyclobutyl 6-oxo-7-oxa-2,5-diazaspiro[3.4]octane-2-carboxylate], the inhibition at 10 µM in data set [1] stood at 100%.

Take `O=C1NC2(CO1)CN(C(=O)O[C@H]1C[C@@H](Oc3ccc(F)c(F)c3F)C1)C2` [Example 51, cis-3-(2,3,4-trifluorophenoxy)cyclobutyl 6-oxo-7-oxa-2,5-diazaspiro[3.4]octane-2-carboxylate]: the inhibition at 10 µM in data set [1] worked out at 99%.

As for `O=C1NC2(CO1)CN(C(=O)O[C@H]1C[C@@H](OCc3c(F)cc(F)cc3F)C1)C2` [Example 8, cis-3-((2,4,6-trifluorobenzyl)oxy)cyclobutyl 6-oxo-7-oxa-2,5-diazaspiro[3.4]octane-2-carboxylate], in data set [1], the inhibition at 10 µM was found to be 100%.

With `Cc1ccc(O[C@H]2C[C@@H](OC(=O)N3CC4(COC(=O)N4)C3)C2)cc1` [Example 53, cis-3-(4-methylphenoxy)cyclobutyl 6-oxo-7-oxa-2,5-diazaspiro[3.4]octane-2-carboxylate], in data set [1], the inhibition at 10 µM was found to be 101%.
